One assay has as its system ETBR surface protein. The assay is described as follows: Surface ETBR protein in live melanoma cells, FACS. As to conditions: 24 h. It is filed as cell-based, human. The protocol: (§1) Melanoma cell lines UACC-257X2.2, A2058, COLO 829, IPC-298 (ATCC) were treated with a BRAF inhibitor drug (“BRAFi”), specifically RG7204 at varying concentrations by adding the appropriate drug volume to cells in culture for 24 h on four-well dishes.
(§2) To determine whether the observed increases in total ETBR protein level due to BRAFi treatment also results in an increase of ETBR surface protein levels, a fluorescence-activated cell sorting (FACS) analysis was performed. Cells were harvested in PBS with 2.5 mmol/L EDTA and washed in PBS buffer containing 1% FBS. All subsequent steps were carried out at 4° C. Cells were incubated for 1 hour with 3 μg/mL anti ETBR antibody Hu5E9v1, followed by anti-human IgG fluorescent detection reagent (A11013; Invitrogen). Cells were then analyzed with a FACS Calibur flow cytometer (BD Biosciences). The results for UACC-257X2.2 are shown in FIG. 4C, the results for A2058 are shown in FIG. 8C, and the results for COLO 829 are shown in FIG. 6C.
(§3) Melanoma cell lines A2058, COLO 829, SK23-MEL and IPC-298 (ATCC) were treated with a MEK inhibitor drug (“MEKi-973” or “MEKi-623”), at varying concentrations (0 μM, 0.01 μM, 0.1 μM or 1 μM) by adding the appropriate drug volume to cells in culture for 24 h on four-well dishes.
as §2, with “MEKi” for “BRAFi”, “performed as described above.” for “performed.”, “Biosciences).” for “Biosciences). The results for UACC-257X2.2 are shown in FIG. 4C, the results for A2058 are shown in FIG. 8C, and the results for COLO 829 are shown in FIG. 6C.”

For another assay, the system named is phosphor-ERK. The assay is described as follows: Phospho-ERK in melanoma cells, Western blot. The settings on record: IPC-298 cells (BRAF wild-type, RAS Q61L), 24 h. The format is cell-based, human. How it is done:
as §1
To test whether the increase in ETBR transcripts due to BRAFi treatment also results in any changes in ETBR total protein levels, Western blot experiments were performed on the same cell lines treated with BRAFi RG7204 as described above. For Western blotting, the following reagents were used: for detection of proteins: an anti-ETBR in-house generated monoclonal antibody 1H1.8.5, anti-Phospho-p44/42 MAPK (Erk1/2) (Thr202/Tyr204) antibody (9101, Cell Signaling Technology), anti-p44/42 MAPK (Erk1/2) antibody (9102, Cell Signaling Technology) and as controls, a rabbit polyclonal anti-GAPDH (glyceraldehyde-3-phosphate dehydrogenase) antibody (PA1-987; Affinity Bioreagents) and mouse monoclonal anti-β-Tubulin antibody (556321, BD Pharmingen). The results for UACC-257X2.2 are shown in FIG. 4B, the results for A2058 are shown in FIG. 8B, the results for COLO 829 are shown in FIG. 6B and the results for IPC-298 are shown in FIG. 10.
On the technique in general: A western blot detects proteins with antibodies after separation by electrophoresis.

Assay [1] concerns COLO 829 melanoma xenograft. Nature of the assay: In vivo efficacy, subcutaneous melanoma xenograft, tumor volume / % TGI. On the set-up: species or system mice.
Procedure: The average tumor volumes were determined from 10 animals per group. Tumor volumes were measured twice per week until study end. Tumor volumes were measured in two dimensions (length and width) using UltraCal IV calipers (Model 54 10 111, Fred V. Fowler Company; Newton, Mass.). The following formula was used with Excel, version 12.2.8 (Microsoft; Redmond, Wash.) to calculate tumor volume: Tumor Volume (mm3)=(length×width)×0.5
To analyze the repeated measurement of tumor volumes from the same animals over time, a mixed-modeling Linear Mixed Effects (LME) approach was used (Pinheiro et al. 2009). This approach can address both repeated measurements and a modest drop-out rate due to non-treatment-related termination of animals prior to study end. Cubic regression splines were used to fit a non-linear profile to the time courses of log 2 tumor volume at each dose level. These non-linear profiles were then related to dose within the mixed model. Tumor growth inhibition (TGI) as a percentage of vehicle was calculated as percent area under the fitted curve (AUC) per day in relation to the vehicle, using the following formula:
To get uncertainty intervals (UIs) for % TGI, the fitted curve and the fitted covariance matrix were used to generate a random sample as an approximation to the distribution of % TGI. The random sample is composed of 1000 simulated realizations of the fitted-mixed model, where the % TGI has been recalculated for each realization. Here, in the reported UI is the value for which 95% of the time, the recalculated values of % TGI will fall in this region given the fitted model. The 2.5 and 97.5 percentiles of the simulated distribution were used as the upper and lower UIs.
The COLO 829 xenograft model was chosen as representative of medium levels of ETBR expression, further increasing the stringency of the combination studies. Tumors were grown to an average size of approximately 200 mm^3, whereupon animals were randomized into groups of 9 each. An appropriate vehicle control (Klucel LF) or G00044364.1-12 (RG7204) at doses of 10 mpk or 30 mpk were administered orally twice a day for 21 days starting on day 0.
Assay [2] relates to ETBR transcript. Nature of the assay: PD study, ETBR transcript in COLO 829 tumors, Taqman, normalized to GAPDH. It is filed as in vivo, mice. As to conditions: RG7204 10 mpk or 30 mpk twice a day for 3 days. The protocol:
A2058 or COLO 829 tumors were grown to an average size of approximately 200 mm^3, whereupon animals were randomized into groups of 5-6 each. For the BRAFi PD study, an appropriate vehicle control (Klucel LF) or RG7204 at doses of 10 mpk or 30 mpk were administered twice a day for 3 days (FIG. 27A). For the MEKi PD study, an appropriate vehicle control or MEKi-973 at doses of 5 mpk and 10 mpk were administered orally once a day for 3 days (FIG. 27B). Flash frozen tumors harvested at end of study were homogenized and processed for RNA and/or protein. Taqman assays were set up using reagents from Applied Biosystems (ABI, Foster City, Calif.) and assayed using 7500 Real Time PCR machine and software from ABI. Primer-probe sets were designed with primers flanking a fluorogenic probe dual labeled with Reporter dye FAM and quencher dye TAMRA. ETBR transcript levels in the tumors were normalized against transcript levels of reference genes such as Hprt1 (hypoxanthine phosphoribosyltransferase 1) or GAPDH (glyceraldehyde 3 phosphate dehydrogenase) using primer and probe sets that were specific to the human homologs of these genes.

Assay [3] concerns ETBR transcript. Nature of the assay: ETBR transcript level in melanoma cell lines, Taqman, normalized to RPL19. It is filed as cell-based, human. The settings on record: 24 h. The protocol:
as §1
(§4) To determine the effect of BRAFi on ETBR and control ribosomal protein L19 (RPL19) transcript levels, the following experiments were performed. Cells treated with RG7204 for 24 h were harvested from plates by scraping and processed for total RNA using Qiashredder and RNeasy mini kits (79654, 74104 from Qiagen, Valencia, Calif.). Taqman assays were set up using reagents from Applied Biosystems (ABI, Foster City, Calif.) and assayed using 7500 Real Time PCR machine and software from ABI. Primer-probe sets were designed with primers flanking a fluorogenic probe dual labeled with Reporter dye FAM and quencher dye TAMRA.
as §3
as §4, with “MEKi” for “BRAFi”, “ETBR” for “ETBR and control ribosomal protein L19 (RPL19)”, “performed as described above in Example 3.” for “performed.”, “either MEKi-973” for “RG7204”

As to `CCCS(=O)(=O)Nc1ccc(F)c(C(=O)c2c[nH]c3ncc(-c4ccc(Cl)cc4)cc23)c1F` [RG7204, propane-1-sulfonic acid {3-[5-(4-chlorophenyl)-1H-pyrrolo[2,3-b]pyridine-3-carbonyl]-2,4-difluoro-phenyl}-amide], the “surface level of ETBR protein vs untreated control cells” value is “appears to increase the surface levels of ETBR protein” in the assay on ETBR surface protein (A2058 cells), “appears to increase the surface levels of ETBR protein” in the assay on ETBR surface protein (COLO 829 cells), “appears to reduce ETBR levels” with ETBR surface protein (IPC-298 cells) and “appears to increase the surface levels of ETBR protein” in the assay with ETBR surface protein (UACC-257X2.2 cells). In addition, the phosphor-ERK level result with phosphor-ERK is “appears to activate the levels of phosphor-ERK”. Also, the “% TGI Single Agent BRAFi vs. control” value was determined as 27% in assay [1] (BRAFi Qdx21 10 mg/kg) and 83% in assay [1] (BRAFi Qdx21 30 mg/kg). Besides, the “ETBR mRNA in tumors vs control vehicle” value with ETBR transcript [2] is on record as “induces ETBR mRNA in vivo”. Moreover, the “ETBR transcript vs untreated control cells” value with ETBR transcript [3] (A2058 cells), with ETBR transcript [3] (COLO 829 cells) and in the assay on ETBR transcript [3] (UACC-257X2.2 cells) was “appears to increase the ETBR transcripts” in each case.

Source of the values: patent US20140341916A1, “THERAPEUTIC COMBINATIONS AND METHODS OF TREATING MELANOMA” (Genentech, Inc., priority 2011, published 2014).
